Data on three molecules can be found in US11364248B2 (AMGEN INC., priority 2017, dated 2022).

Assay [1] relates to OPM-2. Description: Cell Viability Assay (OPM-2 10 FBS). The note with it: OPM-2 cells, 16 h, CellTiter-Glo, read-out: OPM-2 10% FBS IC50 IP. The assay is classed as cell-based, human. Summed up:
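Compounds, serially diluted, were left on OPM-2 cells (3000 cells/well, 10% FBS RPMI 1640) for 16 h at 37° C. under 5% CO2.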

For assay [2], the target named is Mcl-1/Bim interaction (Homo sapiens (Human), UniProt Q07820). Description: Cell Free Mcl-1: Bim Affinity Assay (Mcl-1 HTRF). It is filed as binding. Particulars: TR-FRET, recombinant human Mcl-1(171-327), biotin-Bim(51-76); read-out: Mel-1 HTRF IC50. The essentials: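 IC50 values came from duplicate four-parameter fits of the 665/620 nm TR-FRET ratio, read after overnight incubation with Eu anti-6×His and streptavidin-Xlent detection reagents. Beforehand, serially diluted compounds sat 60 min with Mcl-1 residues 171-327 (0.1 nM) and biotinylated Bim 51-76 peptide (0.05 nM), pH 7.5 Hepes/NaCl/DTT buffer.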
A general note: TR-FRET usually uses a lanthanide donor and a delayed reading to cut background.

Structures are written as SMILES.

Sequence of Mcl-1/Bim interaction (Q07820 171-327): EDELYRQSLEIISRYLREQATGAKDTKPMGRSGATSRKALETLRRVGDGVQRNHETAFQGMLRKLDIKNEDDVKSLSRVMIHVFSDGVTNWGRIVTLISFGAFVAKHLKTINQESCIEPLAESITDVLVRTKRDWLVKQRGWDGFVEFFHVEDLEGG

With `C[C@@H]1[C@@H](C)CCC[C@H]([C@H]2OC[C@](N)(CO)CO2)[C@@H]2CC[C@H]2CN2C[C@@]3(CCCc4cc(Cl)ccc43)COc3ccc(cc32)C(=O)NS1(=O)=O` [Example 79, (1S,3′R,6′R,7′S,11′S,12′R)-7′-(cis-5-amino-5-(hydroxymethyl)-1,3-dioxan-2-yl)-6-chloro-11′,12′-dimethyl-3,4-dihydro-2H,15′H-spiro[naphthalene-1,22′-[20]oxa[13]thia[1,14]diazatetracyclo [14.7.2.0~3,6~.0~19,24~]pentacosa[16,18,24]trien]-15′-one 13′,13′-dioxide], the values for the IC50 in assay [1] and in assay [2] were 829 nM and 0.704 nM, respectively.

Turning to `COC[C@H]1[C@@H](C)CCC[C@H]([C@H]2OC[C@@H](N(C)C)CO2)[C@@H]2CC[C@H]2CN2C[C@@]3(CCCc4cc(Cl)ccc43)COc3ccc(cc32)C(=O)NS1(=O)=O` [Example 87, (1S,3′R,6′R,7′S,11′S,12′R)-6-chloro-7′-(cis-5-(dimethylamino)-1,3-dioxan-2-yl)-12′-(methoxymethyl)-11′-methyl-3,4-dihydro-2H,15′H-spiro[naphthalene-1,22′-[20]oxa[13]thia[1,14]diazatetracyclo [14.7.2.0~3,6~.0~19,24~]pentacosa[16,18,24]trien]-15′-one 13′,13′-dioxide], the IC50 in assay [1] was 735 nM; in assay [2], 5.71 nM.

On to `COC[C@H]1[C@@H](C)CCC[C@H]([C@H]2OC[C@@H](N(C)C)CO2)[C@@H]2CC[C@H]2CN2C[C@@]3(CCCc4cc(Cl)ccc43)COc3ccc(cc32)C(=O)NS1(=O)=O` [Example 88, (1S,3′R,6′R,7′S,11′S,12′R)-6-chloro-7′-(cis-5-(dimethylamino)-1,3-dioxan-2-yl)-12′-(methoxymethyl)-11′-methyl-3,4-dihydro-2H,15′H-spiro[naphthalene-1,22′-[20]oxa[13]thia[1,14]diazatetracyclo [14.7.2.0~3,6~.0~19,24~]pentacosa[16,18,24]trien]-15′-one 13′,13′-dioxide], for which the IC50 is 335 nM in assay [1] and 4.37 nM in assay [2].

In general, IC50 refers to the concentration that gives 50% inhibition.
